Source: paper PMC9274761, “Effects of Structurally Different HDAC Inhibitors against Trypanosoma cruzi, Leishmania, and Schistosoma mansoni” (ACS Infectious Diseases, 2022)
Where “and” joins values, the source holds several entries; their conditions need not be identical. Identical values can stand only once. Like-named read-outs stand apart in the source and are kept apart here.

Experiments:
[1] = test system: T. cruzi amastigotes and trypomastigotes; test: T. cruzi infection assay in L929 cells (beta-galactosidase Tulahuen strain); assay type: cell-based, Trypanosoma cruzi; conditions: for selectivity index (SI), CC50/EC50: L929 CC50 / T. cruzi EC50; for EC50 / EC50, growth of T. cruzi amastigotes and trypomastigotes: mean ± SD; for EC50: read-out: EC50, growth of T. cruzi amastigotes and trypomastigotes
in vitro = conditions: mouse
[2] = test system: newly transformed schistosomula (NTS); test: Phenotypic screening on newly transformed schistosomula (NTS); assay type: cell-based, Schistosoma mansoni; conditions: for IC50: Schistosoma mansoni, 72 h, read-out: IC50, viability of NTS
[3] = test system: L. donovani promastigotes; test: Resazurin reduction assay, L. donovani promastigotes; assay type: cell-based; conditions: Leishmania donovani, read-out: percentage of inhibition, L. donovani promastigotes
[4] = test system: L. amazonensis promastigotes; test: Resazurin reduction assay, L. amazonensis promastigotes; assay type: cell-based; conditions: Leishmania amazonensis, read-out: percentage of inhibition, L. amazonensis promastigotes
[5] = test system: human retinal pigment epithelial (RPE) cells; test: MTT viability assay in RPE cells; assay type: cell-based; conditions: Homo sapiens, RPE, 48 h, read-out: IC50 in RPE cells (cell viability)
[6] = MTT viability assay in RPE cells; assay type: cell-based, human; conditions: human, retinal pigment epithelial (RPE) cells, read-out: percentage of RPE cell viability, 48 h
[7] = test system: L. donovani axenic amastigotes; test: Resazurin reduction assay, L. donovani axenic amastigotes; assay type: cell-based; conditions: Leishmania donovani, read-out: percentage of inhibition, L. donovani axenic amastigotes
S. mansoni adult worms = test: Phenotypic screening on S. mansoni adult worms; assay type: cell-based, Schistosoma mansoni; conditions: 72 h
[8] = test system: L. amazonensis amastigotes in primary mouse macrophages; conditions: 10 μM, 3 days, toxic = toxic for macrophages
[9] = Trypanosoma cruzi, L929, 96 h, infected L929 cells, 96 h
[10] = noninfected L929 fibroblast cells
[11] = 10 μM, infected L929 cells, 96 h, toxic = L929 death
[12] = 20 μM, infected L929 cells, 96 h, toxic = L929 death
[13] = 40 μM, infected L929 cells, 96 h, toxic = L929 death
[14] = 80 μM, infected L929 cells, 96 h, toxic = L929 death
[15] = 160 μM, infected L929 cells, 96 h, toxic = L929 death
[16] = Trypanosoma cruzi, infected L929 cells, 96 h, read-out: percentage of T. cruzi growth inhibition
[17] = Trypanosoma cruzi, 2.5 μM, infected L929 cells, 96 h, toxic = L929 death, read-out: percentage of T. cruzi growth inhibition
[18] = Trypanosoma cruzi, 5 μM, infected L929 cells, 96 h, toxic = L929 death, read-out: percentage of T. cruzi growth inhibition
[19] = Trypanosoma cruzi, 10 μM, infected L929 cells, 96 h, toxic = L929 death, read-out: percentage of T. cruzi growth inhibition
[20] = Trypanosoma cruzi, 20 μM, infected L929 cells, 96 h, toxic = L929 death, read-out: percentage of T. cruzi growth inhibition

Row | SMILES | CC50 at 96 h (in vitro; [10]) | percentage of NTS activity, 72 h ([2]; 10 μM) | percentage of NTS activity, 72 h ([2]; 20 μM) | IC50 [2] | percentage of T. cruzi growth inhibition [1, 13] | percentage of T. cruzi growth inhibition [1, 14] | percentage of T. cruzi growth inhibition [1, 15] | inhibition at 1.25 µM [1, 16] | EC50, growth of T. cruzi amastigotes and trypomastigotes ([1]; infected L929 cells, 96 h) | inhibition at 2.5 µM [1, 17] | inhibition at 5 µM [1, 18] | IC50 [5] | viability at 48 h, 1 µM [6] | viability at 48 h, 5 µM [6] | viability at 48 h, 10 µM [6] | viability at 48 h, 25 µM [6] | viability at 48 h, 50 µM [6] | percentage of activity (death induction), S. mansoni adult worms (S. mansoni adult worms; 10 μM) | percentage of activity (death induction), S. mansoni adult worms (S. mansoni adult worms; 20 μM) | percentage of NTS activity, 72 h ([2]; 1 μM) | further results
1 | O=C(Cn1ccnc1[N+](=O)[O-])NCc1ccccc1 [BZN, benznidazole, reference compound] | – | – | – | – | – | – | – | – | – | – | – | – | – | – | – | – | – | – | – | – | selectivity index (SI), CC50/EC50 [1]: 625; EC50 [1, 9]: 3.8 µM
2 | O=C(/C=C/c1ccc(NC(=O)Cc2cccc3ccccc23)cn1)NO [Compound 5] | 1.25 µM | 31.0 ± 0.0% | 30.8 ± 0.0% | > 20 µM | toxic | toxic | toxic | 0% | inactive | – | – | – | – | – | – | – | – | – | – | – | percentage of T. cruzi growth inhibition ([1]; 2.5 μM, infected L929 cells, 96 h, toxic = L929 death): toxic; percentage of T. cruzi growth inhibition ([1]; 5 μM, infected L929 cells, 96 h, toxic = L929 death): toxic; percentage of T. cruzi growth inhibition [1, 11]: toxic; percentage of T. cruzi growth inhibition [1, 12]: toxic
3 | O=C(/C=C/c1ccc(Cc2nnc(Cc3cccc4ccccc34)o2)cc1)NO [Compound 7] | 5 µM | 38.0 ± 1.2% | 39.4 ± 1.0% | > 20 µM | toxic | toxic | toxic | 0% | inactive | 0% | 21% | – | – | – | – | – | – | – | – | – | percentage of T. cruzi growth inhibition [1, 11]: toxic; percentage of T. cruzi growth inhibition [1, 12]: toxic
4 | CC1=C(/C=C/C(C)=C/C=C/C(C)=C/C(=O)Nc2ccccc2N)C(C)(C)CCC1 [Compound 8] | 80 µM | 37.9 ± 0.0% | 70% and 71.1 ± 1.0% | 12.8 µM | – | – | toxic | 0% | – | 0% | 7% | > 50 µM | 95.3 ± 28.7% | 115 ± 9.4% | 90.4 ± 16.7% | 98.8 ± 4.6% | 72 ± 5.8% | 36.1 ± 2.8% | 52.8 ± 2.8% | – | inhibition at 0.8 µM ([3]; 0.8 μM): 2.3 ± 1.4%; inhibition at 20 µM ([3]; 20 μM): 6.3 ± 1.7%; selectivity index (SI), CC50/EC50 [1]: 5.7; EC50 [1, 9]: 13.9 µM; inhibition at 10 µM [1, 19]: 32%; inhibition at 20 µM [1, 20]: 78%; inhibition at 40 µM ([1]; Trypanosoma cruzi, 40 μM, infected L929 cells, 96 h, toxic = L929 death, read-out: percentage of T. cruzi growth inhibition): 76%; inhibition at 80 µM ([1]; Trypanosoma cruzi, 80 μM, infected L929 cells, 96 h, toxic = L929 death, read-out: percentage of T. cruzi growth inhibition): 88%; EC50 ([1]; infected L929 cells, 96 h): 14 ± 3.4 µM; inhibition at 0.8 µM ([4]; 0.8 μM): 8.1 ± 2.1%; inhibition at 4 µM ([4]; 4 μM): 8.3 ± 3.4%; inhibition at 0.8 µM [7]: 4.3 ± 1.1%; inhibition at 4 µM [7]: 5.8 ± 2.5%; inhibition at 20 µM [7]: 41.8 ± 1.4%
5 | Nc1ccccc1NC(=O)c1ccc(CNC(=O)OCc2cccnc2)cc1 [Compound 9, entinostat, reference compound] | – | 40.0 ± 2.0% | 42.3 ± 0.0% | > 20 µM | toxic | toxic | toxic | 0% | inactive | 0% | 0% | – | – | – | – | – | – | – | – | – | HCA outcome against intramacrophagic L. amazonensis amastigotes [8]: toxic; CC50 at 96 h (in vitro): 20 µM; inhibition at 10 µM [1, 19]: 0%; inhibition at 20 µM [1, 20]: 0%; inhibition at 0.8 µM [7]: 6.7 ± 3.8%; inhibition at 4 µM [7]: 2.9 ± 10.1%; inhibition at 20 µM [7]: 28.9 ± 0.9%
6 | Cn1c(/C=C/C(=O)c2ccc(NC(=O)OC(C)(C)C)cc2)ccc1C(=O)NO [Compound 17] | – | 100.0 ± 0.0% | 100.0 ± 0.0% | 1.23 µM | – | – | – | – | – | – | – | > 50 µM | 74.2 ± 5.2% | 91.8 ± 11.5% | 102 ± 15.2% | 91.9 ± 4.5% | 77.4 ± 2.3% | – | 58.6 ± 0% | 28.0 ± 0.0% | –
7 | CC(C)(C)OC(=O)Nc1ccc(C(=O)/C=C/c2ccc(C(=O)NO)cc2)cc1 [Compound 18] | – | 100.0 ± 0.0% | 100.0 ± 0.0% | 1.26 µM | – | – | – | – | – | – | – | 24.7 µM | 67.9 ± 4.2% | 73.8 ± 3.3% | 71 ± 7.8% | 50.3 ± 7.4% | 43.1 ± 0.1% | 43.1 ± 2.0% | 56.0 ± 7.8% | 26.0 ± 1.0% | –
8 | CC(C)(C)OC(=O)Nc1cccc(C(=O)/C=C/c2ccc(C(=O)NO)cc2)c1 [Compound 19] | – | 100.0 ± 0.0% | 100.0 ± 0.0% | 1.29 µM | – | – | – | – | – | – | – | 48.7 µM | 75.6 ± 16.9% | 80.5 ± 13.7% | 82 ± 12.3% | 68.6 ± 1.3% | 52.8 ± 16.1% | – | 58.6 ± 0% | 24.0 ± 0.0% | –
9 | CC(C)(C)OC(=O)Nc1ccc(C(=O)/C=C/c2ccc(/C=C/C(=O)NO)cc2)cc1 [Compound 20] | – | 100.0 ± 0.0% | 100.0 ± 0.0% | 1.32 µM | – | – | – | – | – | – | – | 27.2 µM | 80 ± 11% | 71.6 ± 9.2% | 63 ± 6% | 59.5 ± 2.4% | 45.6 ± 4.8% | 31.3 ± 2.0% | 40.5 ± 2.6% | 22.0 ± 1.0% | –
